Results published in the NIST ThermoML archive (doi:10.1021/je7007632).

Columns and labels:
[1] = refractive index (Na D-line) (dimensionless); details: 101.33 kPa, Liquid, Standard Abbe refractometry
[2] = refractive index (Na D-line) (dimensionless); xn = mol fraction of the nth substance listed; details: 101 kPa, Liquid, Standard Abbe refractometry

CCC(C)O (centres undefined) [butan-2-ol]
[1]
Details	refractive index
293.15 K	1.3972
298.15 K	1.3951
303.15 K	1.3931
308.15 K	1.3911
313.15 K	1.3891
318.15 K	1.3871

CCC(C)O (centres undefined) [butan-2-ol] + NC=O
[2], x2 = 0
Details	refractive index
293.15 K	1.3972
298.15 K	1.3951
303.15 K	1.3931
308.15 K	1.3911
313.15 K	1.3891
318.15 K	1.3871

NC=O [formamide]
[1]
Details	refractive index
293.15 K	1.4475
298.15 K	1.4467
303.15 K	1.4459
308.15 K	1.4451
313.15 K	1.4442
318.15 K	1.4433

NC=O [formamide] + CC(O)CCO
[2], x1 = 1
Details	refractive index
293.15 K	1.4475
298.15 K	1.4467
303.15 K	1.4459
308.15 K	1.4451
313.15 K	1.4442
318.15 K	1.4433

NC=O [formamide] + CCC(C)O
refractive index, [2]
Details	x1 = 0.1043	x1 = 0.2043	x1 = 0.3056	x1 = 0.4083	x1 = 0.5093	x1 = 0.6063	x1 = 0.7068	x1 = 0.8042	x1 = 0.9024	x1 = 1
293.15 K	1.3993	1.4017	1.4045	1.4079	1.4119	1.4165	1.4222	1.4289	1.4372	1.4475
298.15 K	1.3973	1.3996	1.4025	1.4061	1.4102	1.4149	1.4207	1.4276	1.4361	1.4467
303.15 K	1.3953	1.3977	1.4007	1.4043	1.4085	1.4133	1.4193	1.4263	1.435	1.4459
308.15 K	1.3933	1.3958	1.3989	1.4026	1.4068	1.4118	1.4179	1.4251	1.434	1.4451
313.15 K	1.3913	1.3939	1.397	1.4008	1.4051	1.4102	1.4164	1.4237	1.4328	1.4442
318.15 K	1.3893	1.3919	1.3951	1.399	1.4034	1.4086	1.4149	1.4224	1.4317	1.4433
